{"source": "patent US11447482B1", "about": "“Imidazopyridine and oxazolopyridine derivatives and analogs thereof, methods of preparation thereof, methods of HIF-2A pathway inhibition, and induction of ferroptosis” (KUDA Therapeutics, Inc., priority 2019, dated 2022)", "key": {"[1]": {"system": "786-0 CCRCC cells", "experiment": "ICP-MS of cellular iron, zinc and copper", "format": "cell-based, human", "details": "786-0 cells, 24 hours, 1.5 μM KD002 or KD021, 2.5 μM KD025HCl, versus DMSO", "description": "These studies were performed to determine the content of iron and other transition metals in cells after exposure the compounds described herein. 786-0 cells were seeded at 1.5 million cells/flask in T75 cm^2 flasks in DMEM+10% FBS, and allowed to adhere overnight. Cells were then treated with indicated concentrations of compounds in DMSO or DMSO alone (vehicle) for a further 24 hours, after which cells were detached by trypsinization, counted, washed twice in PBS and pelleted. Experiments were performed using three replicate T75 cm^2 flasks per condition. A 5:1 mixture of nitric acid (OPTIMA Grade, 70%, Fisher Scientific) and ultrapure hydrogen peroxide (ULTREX II, 30%, Fisher Scientific) was added to cell pellets. This mixture was allowed to digest overnight, heated until dry, and resuspended in 2% nitric acid for analysis using an Agilent 7900 ICP-MS (Agilent Technologies, Santa Clara, Calif.). Calibration standard solutions for determination of Fe were prepared from Agilent multi-element calibration standard-2A. An Agilent Environmental Calibration Standard was used as an independent control. PBS-only control digestions were used to measure background. Metal readings were normalized to cell number. Data obtained from these studies for three replicate readings (with SEM) are shown in FIG. 4, which show an increase in cellular iron (Fe) content after treatment with indicated compounds."}, "[2]": {"system": "IRP2", "experiment": "Western blot of treated 786-0 cells: IRP2", "format": "cell-based, human", "description": "Western blots were performed to determine the effects of the compounds on levels of HIF-2α and other relevant proteins. 786-0 (pVHL deficient clear cell kidney cancer cells) were purchased from ATCC were plated at 1×10E5 cells/well in 2 ml DMEM with 10% FBS/well in 6-well tissue culture plates. Cells were allowed to adhere overnight in a humidified incubator at 37° C. with 5% CO2, after which the appropriate concentrations of compounds in DMSO were added. DMSO concentrations were kept constant in all wells. After 24 hour's exposure to the compounds, cells were lysed and subjected to western blotting according to standard protocols (Polek, Talpaz et al. 2003). Antibodies for HIF-2α and Glyceraldehyde 3-Phosphate Dehydrogenase (GAPDH) were purchased from Cell Signaling Technology (Danvers, Mass.), whereas antibodies to iron responsive element binding protein 2 (IRP2) and Glutathione Peroxidase 4 (GPX4) were from Santa Cruz Biotechnology (Dallas, Tex.) and R&D Systems, Inc (Minneapolis, Minn.). Representative data in FIG. 3 show a dose-dependent effect of compounds in decreasing HIF-2α. Compounds also impact cellular iron sensing given by increased IRP2, which taken together indicate that cells sense decreased amounts of available iron. Representative data shown in FIG. 5 Part C show a dose dependent effect of the compounds on GPX4, which may indicate decreased resistance to ferroptosis."}}}
{"molecule": "COc1ccc(-c2nnc(Nc3nc4c(OC)nccc4[nH]3)o2)cc1OC", "note": "[KD025HCl, N-(4-Methoxy-1H-imidazo[4,5-c]pyridin-2-yl)-5-(3,4-dimethoxyphenyl)-1,3,4-oxadiazol-2-amine]", "values": [{"measurement": "cellular copper (Cu) content (ICP-MS)", "setting": "[1]", "result": "increases"}, {"measurement": "cellular iron (Fe) content (ICP-MS)", "setting": "[1]", "result": "increases"}, {"measurement": "cellular zinc (Zn) content (ICP-MS)", "setting": "[1]", "result": "increases"}, {"measurement": "IRP2 protein relative to GAPDH (western blot)", "setting": "[2]; 786-0 CCRCC cells, 24 hours", "result": "increases"}, {"measurement": "IRP2 protein (western blot) at higher concentrations", "setting": "[2]; 786-0 cells, higher concentrations of KD025HCl, FIG. 4 Part D", "result": "decrease"}]}
